The source of these data is patent US20230192650A1, “NOVEL ACID SECRETION INHIBITOR AND USE THEREOF” (Ildong Pharmaceutical Co., Ltd., priority 2020, published 2023).

SMILES strings stand for the structures. Bounds are passed on as bounds.

In general, IC50 refers to the point on the concentration scale where inhibition reaches its midpoint.

The target in test [1] is T1, proton pump (H+/K+-ATPase) (Sus scrofa, UniProt P19156).
T1 construct: Gastric vesicles isolated from pig stomach were prepared according to the document; from tissue; host or cells: pig stomach (gastric vesicles)
T1 sequence (P19156 2-1034 limits assumed): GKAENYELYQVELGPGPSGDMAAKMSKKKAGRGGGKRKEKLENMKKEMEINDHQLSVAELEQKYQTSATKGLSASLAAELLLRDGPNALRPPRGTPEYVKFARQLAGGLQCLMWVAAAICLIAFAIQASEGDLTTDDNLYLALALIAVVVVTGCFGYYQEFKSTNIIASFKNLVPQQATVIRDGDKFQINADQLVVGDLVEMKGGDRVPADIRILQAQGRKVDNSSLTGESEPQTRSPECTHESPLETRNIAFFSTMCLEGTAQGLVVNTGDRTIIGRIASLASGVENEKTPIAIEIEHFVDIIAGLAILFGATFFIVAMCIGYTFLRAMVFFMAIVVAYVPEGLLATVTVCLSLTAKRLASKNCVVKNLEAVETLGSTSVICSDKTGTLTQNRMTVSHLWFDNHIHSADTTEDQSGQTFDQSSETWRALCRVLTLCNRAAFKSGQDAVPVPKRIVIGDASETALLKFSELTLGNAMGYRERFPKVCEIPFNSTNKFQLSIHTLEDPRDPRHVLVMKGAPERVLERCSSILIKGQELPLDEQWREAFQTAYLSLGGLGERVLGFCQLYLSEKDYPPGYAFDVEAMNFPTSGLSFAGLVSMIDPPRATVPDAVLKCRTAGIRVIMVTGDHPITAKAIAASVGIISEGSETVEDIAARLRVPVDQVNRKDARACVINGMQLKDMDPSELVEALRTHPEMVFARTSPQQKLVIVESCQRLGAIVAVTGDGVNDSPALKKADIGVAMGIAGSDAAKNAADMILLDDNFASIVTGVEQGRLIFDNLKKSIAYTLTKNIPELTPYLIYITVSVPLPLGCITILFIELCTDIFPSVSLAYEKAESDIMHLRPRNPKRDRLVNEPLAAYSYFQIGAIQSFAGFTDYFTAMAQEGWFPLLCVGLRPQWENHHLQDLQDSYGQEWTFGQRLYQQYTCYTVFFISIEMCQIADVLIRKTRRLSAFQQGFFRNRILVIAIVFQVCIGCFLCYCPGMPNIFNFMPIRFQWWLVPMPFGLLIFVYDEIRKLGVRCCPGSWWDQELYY
T1 sequence (P18434 whole entry partner): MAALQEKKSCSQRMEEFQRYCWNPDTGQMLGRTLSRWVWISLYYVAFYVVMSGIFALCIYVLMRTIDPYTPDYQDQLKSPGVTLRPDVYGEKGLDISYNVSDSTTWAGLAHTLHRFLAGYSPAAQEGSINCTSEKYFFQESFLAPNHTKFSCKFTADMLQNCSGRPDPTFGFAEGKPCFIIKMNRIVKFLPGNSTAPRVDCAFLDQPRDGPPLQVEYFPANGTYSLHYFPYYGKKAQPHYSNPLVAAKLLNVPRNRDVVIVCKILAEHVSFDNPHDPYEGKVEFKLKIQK
In words: Inhibitory activity on proton pump (H+/K+-ATPase), malachite green assay. Type of test: biochemical. Conditions: pig gastric vesicles, pH 6.5. On the procedure:
The proton pump (H+/K+-ATPase) inhibitory activity of the prepared compound was measured as follows. Gastric vesicles isolated from pig stomach were prepared according to the document (see Methods Mol Biol. 2016; 1377:19-27). The protein contents of the gastric vesicles were quantified with a Bicinchoninic Acid (BCA) kit (Sigma Aldrich, BCA1). To each well of a 96-well plate, 70 μl of 50 mM Tris-HEPES buffer (pH 6.5) containing 125 ng of vesicles, DMSO or a substance for each concentration (final DMSO concentration of 1%), 5 mM MgCl2, and 10 mM KCl was added and pre-incubated at 37° C. for 30 minutes. Then, 10 μl of 2 mM ATP was added to each well, followed by enzymatic reaction at 37° C. for 40 minutes. The reaction was stopped by adding 20 μl of malachite green reagent (Sigma Aldrich, MAK307) and the resulting mixture was allowed to stand at room temperature for 30 minutes. By measuring the absorbance at 620 nm using a Microplate Reader (Biotek, Synergy H4), an amount of inorganic phosphorus released from ATP degradation was measured and the enzyme activity was measured. The absorbance of the enzyme-reacted sample without adding KCl was measured, and the measurement value was subtracted from all the above measurements. Assuming that the group treated with 1% DMSO (DMSO control group) was 100% H^+/K^+-ATPase enzyme activity, and that the group without KCl (KCl control group) was 0% H^+/K^+-ATPase enzyme activity, % inhibition was calculated as in the following Equation 1:
% inhibition=[1−(ODtreatment group−ODKCl control group)/(ODDMSO control group−ODKCl control group))]*100. [Equation 1]
IC50 was obtained by nonlinear regression analysis of GraphPad Prism7 program using % inhibition values for each concentration, and results thereof are shown in Table 2 below.

In test [2] the test system is basal gastric acid secretion. The test is described as follows: Inhibition of basal gastric acid secretion in pylorus-ligated rat (Shay's rat model). The test is classed as in vivo. Conditions: SD rats, 10 mg/kg oral 1 h before pylorus ligation, 5 hours after ligation. How it is done:
The inhibitory efficacy of the prepared compound on basal gastric acid secretion was measured by employing the Shay's rat model [Shay H, et al., Gastroenterology, 1945, 5, 43˜61].
Male Sprague Dawley (SD) rats were divided into 8 rats per group, and fasted with only water supply for 24 hours. Then, one hour before pylorus ligation, the control group was orally administered with 0.5% methylcellulose solution, and the other groups were orally administered with the Example compound at a dose of 10 mg/10 mL/kg suspended in 0.5% methylcellulose solution.
After 5 hours of ligation, the rats were sacrificed under Zoletil and Xylazine anesthesia, and the gastric contents were enucleated by incision of the abdominal cavity. The obtained contents were centrifuged at 3,000 rpm for 10 minutes to separate only the supernatant, and gastric juice was collected. 1 mL of the collected gastric juice was taken into a beaker and the pH was measured using an electrode pH meter. To 1 mL of gastric juice, 0.03 mL each of 0.5% dimethylaminoazobenzene alcohol solution and 1% phenolphthalein alcohol solution was added to make red color, and then 0.1N NaOH solution was added, wherein the volume until the rose tint appeared was determined as the total acidity, and the total acid output was obtained by multiplying the acidity of gastric juice by the amount of gastric juice. The % inhibitory activity of the Example compound was calculated according to the following Equation 2, and results thereof are shown in Table 6 below.
% inhibitory activity of Example compound=[(total gastric acid secretion in Control group−total gastric acid secretion in group treated with Example compound)/total gastric acid secretion in Control group]×100 [Equation 2]

As to `CNCc1cn(S(=O)(=O)c2ccc(OC)nc2)c(-c2ccc(F)cc2F)c1OC` [Example 2, 1-(5-(2,4-Difluorophenyl)-4-methoxy-1-((6-methoxypyridin-3-yl)sulfonyl)-1H-pyrrol-3-yl)-N-methylmethanamine], in test [1], the IC50 was at most 300 nM. In addition, in test [2], the “Inhibitory Activity (%) on total gastric acid secretion” value is given as “+++ (90% or more: +++)” and the “pH of gastric juice” value is given as 8.04 ± 0.16.
For `CNCc1cn(S(=O)(=O)c2ccc(C)nc2)c(-c2ccccc2F)c1OC` [Example 4, 1-(5-(2-Fluorophenyl)-4-methoxy-1-((6-methylpyridin-3-yl)sulfonyl)-1H-pyrrol-3-yl)-N-methylmethanamine], the IC50 in test [1] was at most 300 nM.
